Assay results: publication PMC4774534 (Antiviral Research, 2015)
Where a name gives a salt, the structure may show the parent alone. Read-outs that look alike come from different tables or passages of the source.

Experiments:
[1] = tested on: EBOV pseudotyped virus on 293T-ACE2 cells; type: cell-based; conditions: read-out: HIV-luc (EBOV GP) IC50
[2] = tested on: SARS-CoV Toronto-2 strain in Vero 76 cells; type: cell-based; conditions: read-out: Neutral red (NR) assay IC50
[3] = tested on: SARS-CoV Urbani strain in Vero 76 cells; type: cell-based; conditions: read-out: Neutral red (NR) assay IC50
[4] = tested on: SARS-CoV Toronto-2 strain in Vero 76 cells; type: cell-based; conditions: read-out: CPE inhibition IC50
[5] = tested on: SARS-CoV S pseudotyped virus on 293T-ACE2 cells; type: cell-based; conditions: read-out: HIV-luc (SARS-CoV S) IC50
[6] = tested on: SARS-CoV Urbani strain in Vero 76 cells; type: cell-based; conditions: read-out: Virus yield reduction IC90
[7] = tested on: replication competent SARS-CoV (Urbani and Toronto-2); type: cell-based
[8] = tested on: SARS-CoV Urbani strain in Vero 76 cells; type: cell-based; conditions: read-out: CPE inhibition IC50
[9] = tested on: SARS-CoV Toronto-2 strain in Vero 76 cells; type: cell-based; conditions: read-out: Virus yield reduction IC90
[10] = tested on: Ebola pseudovirus on 293T-CD13 cells transiently expressing TMPRSS2; type: cell-based, EBOV
[11] = tested on: VSV-G pseudovirus on 293T-CD13 cells transiently expressing TMPRSS2; type: cell-based

Row | Compound | IC50 [1] [nM] | IC50 [5] [nM] | further results
1 | (2S)-N-[(1E,3S)-1-(benzenesulfonyl)-5-phenylpent-1-en-3-yl]-2-{[(E)-4-tert-butylpiperazine-1-carbonyl]amino}-3-phenylpropanamide [SMDC-256160] | 0.11 ± 0.03 | 0.08 ± 0.01 | IC50 [2]: 320 nM; IC50 [3]: < 130 nM; IC50 [4]: < 50 nM; IC90 [6]: 490 nM; 90% reduction in viral yields, range over strains [7]: 0.49 to 12.2 µM; IC50 ([7]; read-out: IC50 values, range over strains and readouts): 50 to 320 nM; IC50 [8]: < 80 nM; IC90 [9]: 12200 nM
2 | CCN1CCN(C(=O)N[C@@H](Cc2ccccc2)C(=O)N[C@H](/C=C/S(=O)(=O)c2ccccc2)CCc2ccccc2)CC1 [SMDC-256122, (2S)-N-[(1E,3S)-1-(benzenesulfonyl)-5-phenylpent-1-en-3-yl]-2-{[(E)-4-ethylpiperazine-1-carbonyl]amino}-3-phenylpropanamide] | 0.12 ± 0.01 | 0.04 ± 0.01 | –
3 | O=C(N[C@H](/C=C/S(=O)(=O)c1ccccc1)CCc1ccccc1)[C@H](Cc1ccccc1)NC(=O)N1CCN(CC2CC2)CC1 [SMDC-256162, (2S)-N-[(1E,3S)-1-(benzenesulfonyl)-5-phenylpent-1-en-3-yl]-2-{[(E)-4-(cyclopropylmethyl)piperazine-1-carbonyl]amino}-3-phenylpropanamide] | 0.1 ± 0.01 | 0.16 ± 0.03 | –
4 | CCCN1CCN(C(=O)N[C@@H](Cc2ccccc2)C(=O)N[C@H](/C=C/S(=O)(=O)c2ccccc2)CCc2ccccc2)CC1 [SMDC-256157, (2S)-N-[(1E,3S)-1-(benzenesulfonyl)-5-phenylpent-1-en-3-yl]-2-{[(E)-4-propylylpiperazine-1-carbonyl]amino}-3-phenylpropanamide] | 0.42 ± 0.03 | 0.24 ± 0.03 | –
5 | CC(C)N1CCN(C(=O)N[C@@H](Cc2ccccc2)C(=O)N[C@H](/C=C/S(=O)(=O)c2ccccc2)CCc2ccccc2)CC1 [SMDC-256123, (2S)-N-[(1E,3S)-1-(benzenesulfonyl)-5-phenylpent-1-en-3-yl]-2-{[(E)-4-(propan-2-yl)piperazine-1-carbonyl]amino}-3-phenylpropanamide] | 0.25 ± 0.07 | 0.11 ± 0.01 | –
6 | O=C(N[C@H](/C=C/S(=O)(=O)c1ccccc1)CCc1ccccc1)[C@H](Cc1ccccc1)NC(=O)N1CCN(C2CCCC2)CC1 [SMDC-256161, (2S)-N-[(1E,3S)-1-(benzenesulfonyl)-5-phenylpent-1-en-3-yl]-2-{[(E)-4-cyclopentylpiperazine-1-carbonyl]amino}-3-phenylpropanamide] | 0.18 ± 0.01 | 0.25 ± 0.16 | –
7 | COCCN1CCN(C(=O)N[C@@H](Cc2ccccc2)C(=O)N[C@H](/C=C/S(=O)(=O)c2ccccc2)CCc2ccccc2)CC1 [SMDC-256159, (2S)-N-[(1E,3S)-1-(benzenesulfonyl)-5-phenylpent-1-en-3-yl]-2-{[(E)-4-(2-methoxyethyl)piperazine-1-carbonyl]amino}-3-phenylpropanamide] | 0.16 ± 0.02 | 0.07 ± 0.02 | IC50 [2]: 650 nM; IC50 [3]: < 2260 nM; IC50 [4]: < 480 nM; IC90 [6]: 7100 ± 7600 nM; 90% reduction in viral yields, range over strains [7]: <0.48 to 7.1 µM; IC50 [8]: 650 ± 810 nM
8 | CN(C)C(=O)COC(=O)Cc1ccc(OC(=O)c2ccc(NC(=N)N)cc2)cc1 [camostat, camostat mesylate] | – | – | effect on Ebola pseudovirus infection [10]: no impact; effect on VSV-G driven viral entry [11]: no impact
9 | O=C(N[C@H](/C=C/S(=O)(=O)c1ccccc1)CCc1ccccc1)[C@H](Cc1ccccc1)NC(=O)N1CCN(c2ccccc2)CC1 [SMDC-256158, (2S)-N-[(1E,3S)-1-(benzenesulfonyl)-5-phenylpent-1-en-3-yl]-2-{[(E)-4-phenylpiperazine-1-carbonyl]amino}-3-phenylpropanamide] | 2.69 ± 0.43 | 2.49 ± 0.34 | –
